The assay addresses p38α MAP kinase (Homo sapiens, UniProt Q16539). Briefly: Assay to determine the inhibition of p38α MAP kinase (phosphorylation of ATF-2, IC50-values). It is filed as biochemical. The note with it: ATF-2 coated microtiter plates, 10 ng activated p38α, 100 μM ATP, 1 h at 37° C.; read-out: IC50, inhibition of the phosphorylation of ATF-2 by p38a MAP kinase. Here is the method:
Assay to determine the inhibition of p38α MAP kinase (IC50-values)
Microtiter plates were coated with the p38 MAP kinase substrate ATF-2 by incubating 50 μl of 20 μg/ml ATF-2 for one hour at 37° C. After the plates were washed three times with water, 50 μl of kinase mixture (=50 mM Tris-HCl, 10 mM MgCl2, 10 mM β-glycerol phosphate, 10 μg/ml BSA, 1 mM DTT, 100 μM ATP, 100 μM […], 10 ng activated p38α) without an with increasing inhibitor concentrations were added into the wells and incubated for one hour at 37° C. The plates were washed three times with water and incubated with an anti-phospho-ATF-2 antibody for one hour at 37°. Thereafter, the plates were again washed three times with water and incubated with a goat, alkaline phosphatase-labeled anti-rabbit IgG, for one hour at 37° C. The plates were washed and incubated with 100 μl of a solution containing the phosphatase substrate 4-nitrophenolphosphate (3 mM 4-NPP, 50 mM NaHCO3, 50 mM MgCl2) for 1.5 hours at 37° C. Formation of 4-nitrophenolate was measured at 405 nm using a microtiter plate reader. Based on the inhibitor-concentration/response curves, IC50-values were determined.

As a reminder, the IC50 is the point on the concentration scale where inhibition reaches its midpoint.

Chain of p38α MAP kinase (Q16539 whole entry): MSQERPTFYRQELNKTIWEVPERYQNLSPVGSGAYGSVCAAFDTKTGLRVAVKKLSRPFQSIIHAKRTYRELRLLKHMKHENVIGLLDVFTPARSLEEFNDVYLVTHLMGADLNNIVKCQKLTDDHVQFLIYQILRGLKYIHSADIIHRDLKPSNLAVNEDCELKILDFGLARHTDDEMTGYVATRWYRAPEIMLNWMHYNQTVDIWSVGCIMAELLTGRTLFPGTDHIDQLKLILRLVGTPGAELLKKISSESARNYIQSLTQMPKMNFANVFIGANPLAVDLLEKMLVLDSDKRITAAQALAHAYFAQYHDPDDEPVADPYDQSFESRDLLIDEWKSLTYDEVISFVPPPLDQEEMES

Take `CSc1nc(-c2ccc(F)cc2)c(-c2ccnc(NC3CCCCC3O)c2)n1C` (centres unmarked) [Example 17, 2-{4-[5-(4-Fluoro-phenyl)-3-methyl-2-methylsulfanyl-3H-imidazol-4-yl]-pyridin-2-ylamino}-cyclohexanol]: the IC50 is 1000 to 10000 nM.

For the compound `COCCn1c([S+](C)[O-])nc(-c2ccc(F)cc2)c1-c1ccnc(NC2CCCCC2O)c1` (centres unmarked) [Example 25, 2-{4-[5-(4-Fluoro-phenyl)-2-methanesulfinyl-3-(2-methoxy-ethyl)-3H-imidazol-4-yl]-pyridin-2-ylamino}-cyclohexanol], the IC50 lay within 1000 to 10000 nM.

As for `CSc1nc(-c2ccc(F)cc2)c(-c2ccnc(NC3CCN(Cc4ccccc4)CC3)c2)n1C` [Example 5, (1-Benzyl-piperidin-4-yl)-{4-[5-(4-fluoro-phenyl)-3-methyl-2-methylsulfanyl-3H-imidazol-4-yl]-pyridin-2-yl}-amine], the 50% inhibitory concentration (IC50) lay in the range of 1000 to 10000 nM.

Take `CSc1nc(-c2ccc(F)cc2)c(-c2ccnc(NC3CCCCC3O)c2)n1C` (centres unmarked) [Example 18, 2-{4-[5-(4-Fluoro-phenyl)-3-methyl-2-methylsulfanyl-3H-imidazol-4-yl]-pyridin-2-ylamino}-cyclohexanol]: the IC50 is less than 1000 nM.

`CSc1nc(-c2ccc(F)cc2)c(-c2ccnc(NC3CC(C)(C)NC(C)(C)C3)c2)n1C` [Example 3]: the IC50 was 1000 to 10000 nM.

For `COCCn1c([S+](C)[O-])nc(-c2ccc(F)cc2)c1-c1ccnc(NC(=O)C2CCOCC2)c1` (centres unmarked) [Example 33, Tetrahydro-pyran-4-carboxylic acid {4-[5-(4-fluoro-phenyl)-2-methanesulfinyl-3-(2-methoxy-ethyl)-3H-imidazol-4-yl]-pyridin-2-yl}-amide], the IC50 was less than 1000 nM.

As for `Cn1c([S+](C)[O-])nc(-c2ccc(F)cc2)c1-c1ccnc(NC2CCC(O)CC2)c1` (centres unmarked) [Example 22, 4-{4-[5-(4-Fluoro-phenyl)-2-methanesulfinyl-3-methyl-3H-imidazol-4-yl]-Pyridin-2-ylamino}-cyclohexanol], the half-inhibitory concentration (IC50) was less than 1000 nM.

On to `COCCn1c([S+](C)[O-])nc(-c2ccc(F)cc2)c1-c1ccnc(NCC(C)O)c1` (centres unmarked) [Example 21, 1-{4-[5-(4-Fluoro-phenyl)-2-methanesulfinyl-3-(2-methoxy-ethyl)-3H-imidazol-4-yl]-pyridin-2-ylamino}-propan-2-ol], for which the IC50 is 1000 to 10000 nM.

In the case of `CSc1nc(-c2ccc(F)cc2)c(-c2ccnc(NCC(C)O)c2)n1C` (centres unmarked) [Example 13, 1-{4-[5-(4-Fluoro-phenyl)-3-methyl-2-methylsulfanyl-3H-imidazol-4-yl]-pyridin-2-ylamino}-propan-2-ol], the IC50 is less than 1000 nM.

For the compound `COCCn1c(S(C)(=O)=O)nc(-c2ccc(F)cc2)c1-c1ccnc(NC2CCCCC2O)c1` (centres unmarked) [35 (4)], the IC50 was in the range of 1000 to 10000 nM.

As for `COCCn1c(SC)nc(-c2ccc(F)cc2)c1-c1ccnc(NCC2CCCCC2O)c1` (centres unmarked) [35 (1)], the IC50 was less than 1000 nM.

For `CSc1nc(-c2ccc(F)cc2)c(-c2ccnc(NC3CCCCC3=O)c2)n1C` (centres unmarked) [Example 28, 2-{4-[5-(4-Fluoro-phenyl)-3-methyl-2-methylsulfanyl-3H-imidazol-4-yl]-pyridin-2-ylamino}-cyclohexanone], the IC50 is less than 1000 nM.

For `COCCn1c(SC)nc(-c2ccc(F)cc2)c1-c1ccnc(NC2CCC(O)CC2)c1` (centres unmarked) [Example 16, 4-{4-[5-(4-Fluoro-phenyl)-3-(2-methoxy-ethyl)-2-methylsulfanyl-3H-imidazol-4-yl]-pyridin-2-ylamino}-cyclohexanol], the IC50 was less than 1000 nM.

In the case of `COCCn1c(SC)nc(-c2ccc(F)cc2)c1-c1ccnc(NC2CCCCC2O)c1` (centres unmarked) [Example 35 (2)], the IC50 was less than 1000 nM.

Take `COCCn1c(SC)nc(-c2ccc(F)cc2)c1-c1ccnc(NC(=O)C2CCOCC2)c1` [Example 32, Tetrahydro-pyran-4-carboxylic acid {4-[5-(4-fluoro-phenyl)-3-(2-methoxy-ethyl)-2-methylsulfanyl-3H-imidazol-4-yl]-pyridin-2-yl}-amide]: the half-maximal inhibitory concentration (IC50) was less than 1000 nM.

Turning to `CSc1nc(-c2ccc(F)cc2)c(-c2ccnc(NC3CCC(=O)CC3)c2)n1C` [Example 27, 4-{4-[5-(4-Fluoro-phenyl)-3-methyl-2-methylsulfanyl-3H-imidazol-4-yl]-pyridin-2-ylamino}-cyclohexanone], the IC50 was 1000 to 10000 nM.

Regarding `COCCn1c(SC)nc(-c2ccc(F)cc2)c1-c1ccnc(NCC(C)=O)c1` [Example 26, 1-{4-[5-(4-Fluoro-phenyl)-3-(2-methoxy-ethyl)-2-methylsulfanyl-3H-imidazol-4-yl]-pyridin-2-ylamino}-propan-2-one], the IC50 lay within 1000 to 10000 nM.

As for `CCN1CCCC1CNc1cc(-c2c(-c3ccc(F)cc3)nc(SC)n2CCOC)ccn1` (centres unmarked) [Example 2], the half-inhibitory concentration (IC50) was less than 1000 nM.

As for `Cn1c([S+](C)[O-])nc(-c2ccc(F)cc2)c1-c1ccnc(NC2CC(C)(C)NC(C)(C)C2)c1` (centres unmarked) [Example 9, {4-[5-(4-Fluoro-phenyl)-2-methanesulfinyl-3-methyl-3H-imidazol-4-yl]-pyridin-2-yl}-(2,2,6,6-tetramethyl-piperidin-4-yl)-amine], the IC50 is greater than 10000 nM.

On to `COCCn1c([S+](C)[O-])nc(-c2ccc(F)cc2)c1-c1ccnc(NC2CCC(O)CC2)c1` (centres unmarked) [Example 23, 4-{4-[5-(4-Fluoro-phenyl)-2-methanesulfinyl-3-(2-methoxy-ethyl)-3H-imidazol-4-yl]-pyridin-2-ylamino}-cyclohexanol], for which the IC50 is less than 1000 nM.

In the case of `CC(O)CNc1cc(-c2c(-c3ccc(F)cc3)nc([S+](C)[O-])n2C)ccn1` (centres unmarked) [Example 20, 1-{4-[5-(4-Fluoro-phenyl)-2-methanesulfinyl-3-methyl-3H-imidazol-4-yl]-pyridin-2-ylamino}-propan-2-ol], the half-maximal inhibitory concentration (IC50) was greater than 10000 nM.

With `CCN1CCCC1CNc1cc(-c2c(-c3ccc(F)cc3)nc([S+](C)[O-])n2C)ccn1` (centres unmarked) [Example 7, (1-Ethyl-pyrrolidin-2-ylmethyl)-{4-[5-(4-fluoro-phenyl)-2-methanesulfinyl-3-methyl-3H-imidazol-4-yl]-pyridin-2-yl}-amine], the IC50 was greater than 10000 nM.

For `COCCn1c([S+](C)[O-])nc(-c2ccc(F)cc2)c1-c1ccnc(NC2CC(C)(C)NC(C)(C)C2)c1` (centres unmarked) [Example 10], the IC50 is greater than 10000 nM.

On to `COCCn1c(SC)nc(-c2ccc(F)cc2)c1-c1ccnc(NC2CCN(Cc3ccccc3)CC2)c1` [Example 6, (1-Benzyl-piperidin-4-yl)-{4-[5-(4-fluoro-phenyl)-3-(2-methoxy-ethyl)-2-methylsulfanyl-3H-imidazol-4-yl]-pyridin-2-yl}-amine], for which the IC50 is 1000 to 10000 nM.

As to `COCCn1c(SC)nc(-c2ccc(F)cc2)c1-c1ccnc(NCC(C)O)c1` (centres unmarked) [Example 14, 1-{4-[5-(4-Fluoro-phenyl)-3-(2-methoxy-ethyl)-2-methylsulfanyl-3H-imidazol-4-yl]-pyridin-2-ylamino}-propan-2-ol], the IC50 was less than 1000 nM.

As for `CCN1CCCC1CNc1cc(-c2c(-c3ccc(F)cc3)nc(SC)n2C)ccn1` (centres unmarked) [Example 1, (1-Ethyl-pyrrolidin-2-ylmethyl)-{4-[5-(4-fluoro-phenyl)-3-methyl-2-methylsulfanyl-3H-imidazol-4-yl]-pyridin-2-yl}-amine], the IC50 is greater than 10000 nM.

Regarding `COCCn1c([S+](C)[O-])nc(-c2ccc(F)cc2)c1-c1ccnc(NC2CCN(Cc3ccccc3)CC2)c1` (centres unmarked) [Example 12, (1-Benzyl-piperidin-4-yl)-{4-[5-(4-fluoro-phenyl)-2-methanesulfinyl-3-(2-methoxy-ethyl)-3H-imidazol-4-yl]-pyridin-2-yl}-amine], the concentration for half-maximal inhibition (IC50) was in the range of 1000 to 10000 nM.

Turning to `Cn1c([S+](C)[O-])nc(-c2ccc(F)cc2)c1-c1ccnc(NC2CCN(Cc3ccccc3)CC2)c1` (centres unmarked) [Example 11, (1-Benzyl-piperidin-4-yl)-{4-[5-(4-fluoro-phenyl)-2-methanesulfinyl-3-methyl-3H-imidazol-4-yl]-pyridin-2-yl}-amine], the IC50 is greater than 10000 nM.

As for `COCCn1c(SC)nc(-c2ccc(F)cc2)c1-c1ccnc(NC2CC(C)(C)NC(C)(C)C2)c1` [Example 4, {4-[5-(4-Fluoro-phenyl)-3-(2-methoxy-ethyl)-2-methylsulfanyl-3H-imidazol-4-yl]-pyridin-2-yl}-(2,2,6,6-tetramethyl-piperidin-4-yl)-amine], the concentration for half-maximal inhibition (IC50) is less than 1000 nM.

As for `CSc1nc(-c2ccc(F)cc2)c(-c2ccnc(NC3CCC(O)CC3)c2)n1C` (centres unmarked) [Example 15, 4-{4-[5-(4-Fluoro-phenyl)-3-methyl-2-methylsulfanyl-3H-imidazol-4-yl]-pyridin-2-ylamino}-cyclohexanol], the IC50 was less than 1000 nM.

With `Cn1c([S+](C)[O-])nc(-c2ccc(F)cc2)c1-c1ccnc(NC2CCCCC2O)c1` (centres unmarked) [Example 24, 2-{4-[5-(4-Fluoro-phenyl)-2-methanesulfinyl-3-methyl-3H-imidazol-4-yl]pyridin-2-ylamino}-cyclohexanol], the IC50 lay within 1000 to 10000 nM.

As for `COCCn1c(SC)nc(-c2ccc(F)cc2)c1-c1ccnc(NC2CCCCC2O)c1` (centres unmarked) [Example 19, 2-{4-[5-(4-Fluoro-phenyl)-3-(2-methoxy-ethyl)-2-methylsulfanyl-3H-imidazol-4-yl]-pyridin-2-ylamino}-cyclohexanol], the IC50 was in the range of 1000 to 10000 nM.

The values above are taken from US20100069436A1, “IMIDAZOLE COMPOUNDS HAVING AN ANTIINFLAMMATORY EFFECT” (Merckle, priority 2006, published 2010).
